From patent US7211572B2 (Japan Tobacco Inc., priority 2003, dated 2007)
Where a name gives a salt, the structure may show the parent alone.

Target: T1, HIV integrase (Human immunodeficiency virus type 1 group M subtype B, UniProt P12497, F1332H)
T1 construct: HIV integrase full length gene; made in house; host or cells: Escherichia coli BL21(DE3), plasmid pET21a-INH
Test: Determination of enzyme (HIV integrase) inhibitory activity
Format: biochemical
Conditions: recombinant HIV integrase (F185H), strand transfer ELISA, absorbance at 450 nm
Summary of the method: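 Full-length integrase with F185H, expressed in E. coli and purified, was reacted for 60 min at 37 °C with compound and biotinylated donor DNA bound to streptavidin plates. Target DNA was added for 10 min, then anti-digoxigenin-peroxidase detection at A450; IC50 from % inhibition versus enzyme-free blank.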

**Q.** For `O=C(O)CNC(=O)c1cn2ccn(Cc3cccc(Cl)c3)c(=O)c2c(O)c1=O` [Example 193, {[2-(3-chlorobenzyl)-9-hydroxy-1,8-dioxo-1,8-dihydro-2H-pyrido[1,2-a]pyrazine-7-carbonyl]amino}acetic acid], which IC50 is on record?
**A.** 10 to 100 nM

**Q.** How did the IC50 turn out when `CN(C)C(=O)CNC(=O)c1cn2ccn(Cc3cccc(Cl)c3)c(=O)c2c(O)c1=O` [Example 194, N-dimethylcarbamoylmethyl-2-(3-chlorobenzyl)-9-hydroxy-1,8-dioxo-1,8-dihydro-2H-pyrido[1,2-a]pyrazine-7-carboxamide] was run?
**A.** 10 to 100 nM

**Q.** Which IC50 does the source give for `CNC(=O)CNC(=O)c1cn2ccn(Cc3cccc(Cl)c3)c(=O)c2c(O)c1=O` [Example 195, N-methylcarbamoylmethyl-2-(3-chlorobenzyl)-9-hydroxy-1,8-dioxo-1,8-dihydro-2H-pyrido[1,2-a]pyrazine-7-carboxamide] here?
**A.** 10 to 100 nM

**Q.** With `O=C(Nc1ccccc1)c1cn2ccn(Cc3cccc(Cl)c3)c(=O)c2c(O)c1=O` [Example 196, N-phenyl-2-(3-chlorobenzyl)-9-hydroxy-1,8-dioxo-1,8-dihydro-2H-pyrido[1,2-a]pyrazine-7-carboxamide hydrochloride] as the molecule, how does the IC50 read?
**A.** 10 to 100 nM

**Q.** For `O=c1c(-c2ncco2)cn2ccn(Cc3cccc(Cl)c3)c(=O)c2c1O` [Example 197, 2-(3-chlorobenzyl)-9-hydroxy-7-(oxazol-2-yl)-2H-pyrido[1,2-a]pyrazine-1,8-dione hydrochloride], which IC50 is on record?
**A.** 10 to 100 nM

**Q.** For `O=C(c1cn2ccn(Cc3cccc(Cl)c3)c(=O)c2c(O)c1=O)N1CCC(O)C1` (centres unmarked) [Example 198, 2-(3-chlorobenzyl)-9-hydroxy-7-(3-hydroxypyrrolidine-1-carbonyl)-2H-pyrido[1,2-a]pyrazine-1,8-dione hydrochloride], which IC50 is on record?
**A.** 10 to 100 nM

**Q.** How did the IC50 turn out when `CC(=O)CNC(=O)c1cn2ccn(Cc3cccc(Cl)c3)c(=O)c2c(O)c1=O` [Example 199, N-(2-oxopropyl)-2-(3-chlorobenzyl)-9-hydroxy-1,8-dioxo-1,8-dihydro-2H-pyrido[1,2-a]pyrazine-7-carboxamide] was run?
**A.** 10 to 100 nM

**Q.** How did the IC50 turn out when `O=C(Cn1ccn2ccc(=O)c(O)c2c1=O)Nc1ccccc1` [Example 200, 2-(9-hydroxy-1,8-dioxo-1,8-dihydro-pyrido[1,2-a]pyrazin-2-yl)-N-phenylacetamide hydrochloride] was run?
**A.** 100 to 1000 nM

**Q.** How did the IC50 turn out when `O=C1CCN(C(=O)c2cn3ccn(Cc4cccc(Cl)c4)c(=O)c3c(O)c2=O)C1` [Example 201, 2-(3-chlorobenzyl)-9-hydroxy-7-(3-oxopyrrolidine-1-carbonyl)-2H-pyrido[1,2-a]pyrazine-1,8-dione] was run?
**A.** 10 to 100 nM

**Q.** Which IC50 does the source give for `COc1ccc(Cl)cc1Cn1ccn2ccc(=O)c(O)c2c1=O` [Example 202, 2-(5-chloro-2-methoxybenzyl)-9-hydroxy-2H-pyrido[1,2-a]pyrazine-1,8-dione hydrochloride] here?
**A.** 10 to 100 nM

**Q.** With `CS(=O)(=O)Nc1cn2ccn(Cc3cccc(Cl)c3)c(=O)c2c(O)c1=O` [Example 203, N-[2-(3-chlorobenzyl)-9-hydroxy-1,8-dioxo-1,8-dihydro-2H-pyrido[1,2-a]pyrazin-7-yl]methanesulfonamide] as the molecule, how does the IC50 read?
**A.** < 10 nM

**Q.** `CC(=O)c1cn2ccn(Cc3cccc(Cl)c3)c(=O)c2c(O)c1=O` [Example 204, 7-acetyl-2-(3-chlorobenzyl)-9-hydroxy-2H-pyrido[1,2-a]pyrazine-1,8-dione hydrochloride] was tested. Which IC50 did it give?
**A.** < 10 nM

**Q.** For `CCC(=O)c1cn2ccn(Cc3cccc(Cl)c3)c(=O)c2c(O)c1=O` [Example 205, 2-(3-chlorobenzyl)-9-hydroxy-7-propionyl-2H-pyrido[1,2-a]pyrazine-1,8-dione hydrochloride], which IC50 is on record?
**A.** < 10 nM

**Q.** How did the IC50 turn out when `O=c1ccn2ccn(C/C=C/c3ccccc3)c(=O)c2c1O` [Example 206, 9-hydroxy-2-(3-phenylallyl)-2H-pyrido[1,2-a]pyrazine-1,8-dione] was run?
**A.** 10 to 100 nM

**Q.** Which IC50 does the source give for `CNC(=O)c1cn2ccn(Cc3ccc(F)c(Cl)c3)c(=O)c2c(O)c1=O` [Example 207, N-methyl-2-(3-chloro-4-fluorobenzyl)-9-hydroxy-1,8-dioxo-1,8-dihydro-2H-pyrido[1,2-a]pyrazine-7-carboxamide] here?
**A.** < 10 nM

**Q.** With `CN(C)C(=O)c1cn2ccn(Cc3ccc(F)c(Cl)c3)c(=O)c2c(O)c1=O` [Example 208, N,N-dimethyl-2-(3-chloro-4-fluorobenzyl)-9-hydroxy-1,8-dioxo-1,8-dihydro-2H-pyrido[1,2-a]pyrazine-7-carboxamide] as the molecule, how does the IC50 read?
**A.** < 10 nM

**Q.** Which IC50 does the source give for `CS(=O)(=O)CCNC(=O)c1cn2ccn(Cc3cccc(Cl)c3)c(=O)c2c(O)c1=O` [Example 209, N-(2-methanesulfonylethyl)-2-(3-chlorobenzyl)-9-hydroxy-1,8-dioxo-1,8-dihydro-2H-pyrido[1,2-a]pyrazine-7-carboxamide] here?
**A.** 10 to 100 nM

**Q.** `O=C(NCCN1CCCC1=O)c1cn2ccn(Cc3cccc(Cl)c3)c(=O)c2c(O)c1=O` [Example 210, N-[2-(2-oxopyrrolidin-1-yl)ethyl)-2-(3-chlorobenzyl)-9-hydroxy-1,8-dioxo-1,8-dihydro-2H-pyrido[1,2-a]pyrazine-7-carboxamide] was tested. Which IC50 did it give?
**A.** 10 to 100 nM

**Q.** For `CN(c1cn2ccn(Cc3cccc(Cl)c3)c(=O)c2c(O)c1=O)S(C)(=O)=O` [Example 211, N-[2-(3-chlorobenzyl)-9-hydroxy-1,8-dioxo-1,8-dihydro-2H-pyrido[1,2-a]pyrazin-7-yl]-N-methylmethanesulfonamide], which IC50 is on record?
**A.** < 10 nM

**Q.** `COc1cc(Cl)cc(Cn2ccn3ccc(=O)c(O)c3c2=O)c1` [Example 212, 2-(3-chloro-5-methoxybenzyl)-9-hydroxy-2H-pyrido[1,2-a]pyrazine-1,8-dione hydrochloride] was tested. Which IC50 did it give?
**A.** 10 to 100 nM

**Q.** How did the IC50 turn out when `O=C(NCc1ccncc1)c1cn2ccn(Cc3cccc(Cl)c3)c(=O)c2c(O)c1=O` [Example 213, N-(pyridin-4-ylmethyl)-2-(3-chlorobenzyl)-9-hydroxy-1,8-dioxo-1,8-dihydro-2H-pyrido[1,2-a]pyrazine-7-carboxamide] was run?
**A.** 10 to 100 nM

**Q.** How did the IC50 turn out when `O=C(NCc1ccc(F)cc1)c1cn2ccn(Cc3cccc(Cl)c3)c(=O)c2c(O)c1=O` [Example 214, N-(4-fluorobenzyl)-2-(3-chlorobenzyl)-9-hydroxy-1,8-dioxo-1,8-dihydro-2H-pyrido[1,2-a]pyrazine-7-carboxamide] was run?
**A.** < 10 nM

**Q.** How did the IC50 turn out when `O=C1c2c(O)c(=O)c(-c3nccs3)cn2CCN1Cc1cccc(Cl)c1` [Example 215, 2-(3-chlorobenzyl)-9-hydroxy-7-(thiazol-2-yl)-3,4-dihydro-2H-pyrido[1,2-a]pyrazine-1,8-dione] was run?
**A.** < 10 nM

**Q.** With `O=c1c(CO)cn2ccn(Cc3cccc(Cl)c3)c(=O)c2c1O` [Example 216, 2-(3-chlorobenzyl)-9-hydroxy-7-hydroxymethyl-2H-pyrido[1,2-a]pyrazine-1,8-dione hydrochloride] as the molecule, how does the IC50 read?
**A.** 10 to 100 nM

**Q.** How did the IC50 turn out when `CC(C)(C)C(=O)c1cn2ccn(Cc3ccc(F)c(Cl)c3)c(=O)c2c(O)c1=O` [Example 217, 2-(3-chloro-4-fluorobenzyl)-7-(2,2-dimethylpropionyl)-9-hydroxy-2H-pyrido[1,2-a]pyrazine-1,8-dione hydrochloride] was run?
**A.** < 10 nM

**Q.** With `O=c1c(-c2cncs2)cn2ccn(Cc3cccc(Cl)c3)c(=O)c2c1O` [Example 218, 2-(3-chlorobenzyl)-9-hydroxy-7-(thiazol-5-yl)-2H-pyrido[1,2-a]pyrazine-1,8-dione hydrochloride] as the molecule, how does the IC50 read?
**A.** < 10 nM

**Q.** For `CNC(=O)c1cn2c(c(O)c1=O)C(=O)N(Cc1cccc(Cl)c1)CC2` [Example 219, 2-(3-chlorobenzyl)-9-hydroxy-1,8-dioxo-1,3,4,8-tetrahydro-2H-pyrido[1,2-a]pyrazine-7-carboxylic acid methylamide], which IC50 is on record?
**A.** 10 to 100 nM

**Q.** `CN(C)C(=O)c1cn2c(c(O)c1=O)C(=O)N(Cc1cccc(Cl)c1)CC2` [Example 220, N,N-dimethyl-2-(3-chlorobenzyl)-9-hydroxy-1,8-dioxo-1,3,4,8-tetrahydro-2H-pyrido[1,2-a]pyrazine-7-carboxamide] was tested. Which IC50 did it give?
**A.** 10 to 100 nM

**Q.** Which IC50 does the source give for `CC(C)(C)C(=O)c1cn2c(c(O)c1=O)C(=O)N(Cc1ccc(F)c(Cl)c1)CC2` [Example 221, 2-(3-chloro-4-fluorobenzyl)-7-(2,2-dimethylpropionyl)-9-hydroxy-3,4-dihydro-2H-pyrido[1,2-a]pyrazine-1,8-dione hydrochloride] here?
**A.** < 10 nM

**Q.** How did the IC50 turn out when `CNC(=O)c1cn2c(CO)cn(Cc3ccc(F)c(Cl)c3)c(=O)c2c(O)c1=O` [Example 222, 2-(3-chloro-4-fluorobenzyl)-9-hydroxy-4-hydroxymethyl-1,8-dioxo-1,8-dihydro-2H-pyrido[1,2-a]pyrazine-7-carboxylic acid methylamide hydrochloride] was run?
**A.** < 10 nM

**Q.** With `CC(C)(C)C(=O)c1cn2c(c(O)c1=O)C(=O)N(Cc1cccc(Cl)c1)CC2` [Example 223, 2-(3-chlorobenzyl)-7-(2,2-dimethylpropionyl)-9-hydroxy-3,4-dihydro-2H-pyrido[1,2-a]pyrazine-1,8-dione hydrochloride] as the molecule, how does the IC50 read?
**A.** 10 to 100 nM

**Q.** With `O=c1ccn2ccn(Cc3ccc(Cl)cc3O)c(=O)c2c1O` [Example 224, 2-(4-chloro-2-hydroxybenzyl)-9-hydroxy-2H-pyrido[1,2-a]pyrazine-1,8-dione hydrochloride] as the molecule, how does the IC50 read?
**A.** 10 to 100 nM

**Q.** `O=C1c2c(O)c(=O)c(-c3nccs3)cn2CCN1Cc1ccc(F)c(Cl)c1` [Example 225, 2-(3-chloro-4-fluorobenzyl)-9-hydroxy-7-(thiazol-2-yl)-3,4-dihydro-2H-pyrido[1,2-a]pyrazine-1,8-dione] was tested. Which IC50 did it give?
**A.** < 10 nM

**Q.** Which IC50 does the source give for `CN(C(=O)Cn1ccn2ccc(=O)c(O)c2c1=O)c1ccccc1` [Example 226, 2-(9-hydroxy-1,8-dioxo-1,8-dihydro-pyrido[1,2-a]pyrazin-2-yl)-N-methyl-N-phenylacetamide hydrochloride] here?
**A.** 100 to 1000 nM

**Q.** Which IC50 does the source give for `CNC(=O)c1cn2c(c(O)c1=O)C(=O)N(Cc1ccc(F)c(Cl)c1)CC2` [Example 227, N-methyl-2-(3-chloro-4-fluorobenzyl)-9-hydroxy-1,8-dioxo-1,3,4,8-tetrahydro-2H-pyrido[1,2-a]pyrazine-7-carboxamide] here?
**A.** 10 to 100 nM
